In ChEMBL document CHEMBL1240295, “Specificity and mechanism of action of some commonly used protein kinase inhibitors” (Biochem J, 2000) one finds residual activity data, which are given here for one compound.

The structures appear in SMILES notation.

For experiment [1], the species on record is Oryctolagus cuniculus. Description: Inhibition of MAPKAPK1b from rabbit skeletal muscle at 1 uM. Type of experiment: tissue-based. The note with it: Muscle tissue, values are per cent of control.
The target in experiment [2] is Mitogen-activated protein kinase 14 (Homo sapiens) (UniProt Q16539). Description: Inhibition of His-tagged human SAPK2a/p38 expressed in Escherichia coli at 1 uM; values are per cent of control.
Mitogen-activated protein kinase 14 (Homo sapiens), sequence (Q16539 whole entry): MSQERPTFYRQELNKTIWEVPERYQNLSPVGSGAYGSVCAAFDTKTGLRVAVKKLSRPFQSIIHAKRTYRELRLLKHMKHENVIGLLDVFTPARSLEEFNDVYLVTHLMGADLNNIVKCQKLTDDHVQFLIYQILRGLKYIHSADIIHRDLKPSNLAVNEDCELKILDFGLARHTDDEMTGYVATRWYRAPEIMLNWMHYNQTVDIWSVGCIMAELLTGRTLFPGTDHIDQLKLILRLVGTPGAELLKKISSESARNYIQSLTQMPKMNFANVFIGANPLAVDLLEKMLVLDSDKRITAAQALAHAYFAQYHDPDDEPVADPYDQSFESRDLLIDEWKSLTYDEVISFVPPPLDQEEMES
Experiment [3] addresses Protein kinase C alpha type (Homo sapiens, UniProt P17252). Description: Inhibition of His-tagged human PKCalpha expressed in Escherichia coli at 1 uM. The note with it: values are per cent of control.
Experiment [4] concerns the target T1, Serine/threonine-protein kinase Chk1 (Homo sapiens) (UniProt O14757).
T1 sequence (whole entry): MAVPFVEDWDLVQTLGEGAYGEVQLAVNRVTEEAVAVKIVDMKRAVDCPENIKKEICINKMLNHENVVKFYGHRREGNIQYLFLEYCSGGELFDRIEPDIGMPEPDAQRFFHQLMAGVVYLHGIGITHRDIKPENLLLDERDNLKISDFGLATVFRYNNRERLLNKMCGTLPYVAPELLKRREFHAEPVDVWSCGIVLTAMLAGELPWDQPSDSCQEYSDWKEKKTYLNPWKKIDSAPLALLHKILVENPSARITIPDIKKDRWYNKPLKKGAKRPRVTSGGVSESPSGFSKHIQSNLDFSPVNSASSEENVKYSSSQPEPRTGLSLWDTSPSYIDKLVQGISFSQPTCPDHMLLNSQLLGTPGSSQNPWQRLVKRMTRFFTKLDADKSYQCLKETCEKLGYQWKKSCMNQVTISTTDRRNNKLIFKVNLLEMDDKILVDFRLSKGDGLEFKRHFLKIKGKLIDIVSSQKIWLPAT
Description: Inhibition of His-tagged human CHK1 expressed in Escherichia coli at 1 uM; values are per cent of control.

Experiment [5] has as its target Ribosomal protein S6 kinase alpha-5 (Homo sapiens, UniProt O75582). Description: Inhibition of His-tagged human MSK1 expressed in Sf9 cells at 1 uM; values are per cent of control.
Experiment [6] deals with RAC-alpha serine/threonine-protein kinase (Homo sapiens) (UniProt P31749). Description: Inhibition of human PKBalpha expressed in SF9 cells at 1 uM. The note with it: values are per cent of control.
RAC-alpha serine/threonine-protein kinase (Homo sapiens), sequence (P31749 whole entry): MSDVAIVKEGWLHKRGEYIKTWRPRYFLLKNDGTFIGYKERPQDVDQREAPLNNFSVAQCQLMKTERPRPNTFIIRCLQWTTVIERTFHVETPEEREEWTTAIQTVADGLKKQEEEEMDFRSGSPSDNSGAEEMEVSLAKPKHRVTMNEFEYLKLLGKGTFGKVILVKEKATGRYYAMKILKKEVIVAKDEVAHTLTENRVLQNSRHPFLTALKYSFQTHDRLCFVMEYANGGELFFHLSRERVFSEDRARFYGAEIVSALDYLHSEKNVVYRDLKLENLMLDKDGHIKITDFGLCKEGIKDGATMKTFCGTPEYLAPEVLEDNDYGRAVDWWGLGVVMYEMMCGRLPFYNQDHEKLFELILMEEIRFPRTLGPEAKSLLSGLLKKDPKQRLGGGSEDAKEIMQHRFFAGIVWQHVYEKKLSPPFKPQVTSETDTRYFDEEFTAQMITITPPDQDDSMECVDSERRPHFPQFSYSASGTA
Experiment [7] addresses Casein kinase II (Homo sapiens) (UniProt P67870+P68400+P19784). Description: Inhibition of His-tagged human CK2 expressed in Sf9 cells at 1 uM. The note with it: values are per cent of control.
The species named for experiment [8] is Oryctolagus cuniculus. Description: Inhibition of rabbit MKK1 expressed in Escherichia coli at 1 uM. The note with it: values are per cent of control.
Experiment [9] deals with Rho-associated protein kinase 2 (Rattus norvegicus) (UniProt Q62868). Description: Inhibition of rat ROCK2 expressed in Sf9 cells at 1 uM. The note with it: values are per cent of control.
Rho-associated protein kinase 2 (Rattus norvegicus), sequence (Q62868 whole entry, looked up): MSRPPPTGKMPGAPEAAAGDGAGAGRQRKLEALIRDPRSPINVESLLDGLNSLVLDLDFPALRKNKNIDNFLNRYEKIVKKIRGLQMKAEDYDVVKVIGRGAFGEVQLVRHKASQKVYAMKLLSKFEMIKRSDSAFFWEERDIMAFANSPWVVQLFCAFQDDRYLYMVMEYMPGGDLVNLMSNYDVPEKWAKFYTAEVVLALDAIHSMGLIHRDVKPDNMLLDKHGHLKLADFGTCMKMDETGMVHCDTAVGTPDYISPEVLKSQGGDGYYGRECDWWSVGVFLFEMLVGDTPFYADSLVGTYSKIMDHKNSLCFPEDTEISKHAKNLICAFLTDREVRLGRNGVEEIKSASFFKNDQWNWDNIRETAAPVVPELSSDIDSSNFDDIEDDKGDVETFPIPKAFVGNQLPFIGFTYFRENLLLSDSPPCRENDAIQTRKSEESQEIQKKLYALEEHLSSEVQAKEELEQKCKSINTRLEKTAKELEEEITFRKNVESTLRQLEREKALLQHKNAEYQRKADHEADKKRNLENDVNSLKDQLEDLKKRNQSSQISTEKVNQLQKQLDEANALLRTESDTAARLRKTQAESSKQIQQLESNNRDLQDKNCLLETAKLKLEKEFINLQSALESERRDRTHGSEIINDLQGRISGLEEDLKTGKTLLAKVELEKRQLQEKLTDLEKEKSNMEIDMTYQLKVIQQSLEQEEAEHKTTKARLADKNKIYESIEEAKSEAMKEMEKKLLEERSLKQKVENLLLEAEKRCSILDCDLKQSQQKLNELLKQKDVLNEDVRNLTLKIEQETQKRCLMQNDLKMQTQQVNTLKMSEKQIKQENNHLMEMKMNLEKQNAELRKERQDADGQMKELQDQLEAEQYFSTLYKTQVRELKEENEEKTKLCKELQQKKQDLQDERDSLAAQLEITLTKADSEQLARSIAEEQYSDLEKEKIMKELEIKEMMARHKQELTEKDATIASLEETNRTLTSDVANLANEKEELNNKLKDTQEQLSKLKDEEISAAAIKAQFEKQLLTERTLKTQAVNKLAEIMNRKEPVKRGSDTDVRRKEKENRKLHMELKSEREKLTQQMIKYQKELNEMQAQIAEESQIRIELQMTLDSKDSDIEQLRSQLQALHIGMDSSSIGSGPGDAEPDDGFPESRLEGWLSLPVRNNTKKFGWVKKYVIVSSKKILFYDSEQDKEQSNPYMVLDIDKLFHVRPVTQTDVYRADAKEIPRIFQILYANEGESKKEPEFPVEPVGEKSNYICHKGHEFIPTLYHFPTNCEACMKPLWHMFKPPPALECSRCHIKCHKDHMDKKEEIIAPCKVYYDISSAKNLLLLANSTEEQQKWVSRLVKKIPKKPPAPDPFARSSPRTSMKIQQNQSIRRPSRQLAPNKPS
Experiment [10] has as its target 3-phosphoinositide-dependent protein kinase 1 (Homo sapiens) (UniProt O15530). Description: Inhibition of His-tagged human PDK1 expressed in Sf21 cells at 1 uM. The note with it: values are per cent of control.
For experiment [11], the species on record is Oryctolagus cuniculus. Description: Inhibition of PHK from rabbit skeletal muscle at 1 uM. The note with it: Muscle tissue, values are per cent of control. Type of experiment: tissue-based.
A further experiment is filed under the species Rattus norvegicus. Description: Inhibition of rat liver AMPK at 1 uM. The note with it: values are per cent of control.
The species named for a further experiment is Bos taurus. Description: Inhibition of bovine heart PKA at 1 uM. The note with it: values are per cent of control.
For experiment [12], the target named is T2, MAP kinase-activated protein kinase 5 (Homo sapiens) (UniProt Q8IW41).
T2 sequence (whole entry): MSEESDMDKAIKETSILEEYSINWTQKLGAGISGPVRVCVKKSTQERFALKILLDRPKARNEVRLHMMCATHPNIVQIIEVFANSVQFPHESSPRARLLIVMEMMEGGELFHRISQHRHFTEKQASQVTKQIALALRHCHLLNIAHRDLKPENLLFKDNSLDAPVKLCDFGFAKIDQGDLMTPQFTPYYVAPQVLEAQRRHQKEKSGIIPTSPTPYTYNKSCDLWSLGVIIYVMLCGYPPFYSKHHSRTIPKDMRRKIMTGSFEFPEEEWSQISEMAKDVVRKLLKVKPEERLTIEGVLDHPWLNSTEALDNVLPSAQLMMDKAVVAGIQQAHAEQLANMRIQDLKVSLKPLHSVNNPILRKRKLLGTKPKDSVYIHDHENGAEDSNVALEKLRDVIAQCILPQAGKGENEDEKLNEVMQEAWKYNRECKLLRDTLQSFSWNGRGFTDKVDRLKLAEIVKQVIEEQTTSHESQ
Description: Inhibition of His-tagged human PRAK expressed in Sf9 cells at 1 uM; values are per cent of control.

The target in experiment [13] is Mitogen-activated protein kinase 8 (Homo sapiens) (UniProt P45983). Description: Inhibition of His-tagged human JNK1a1/SAPK1c expressed in Escherichia coli at 1 uM; values are per cent of control.
Mitogen-activated protein kinase 8 (Homo sapiens), sequence (P45983 whole entry): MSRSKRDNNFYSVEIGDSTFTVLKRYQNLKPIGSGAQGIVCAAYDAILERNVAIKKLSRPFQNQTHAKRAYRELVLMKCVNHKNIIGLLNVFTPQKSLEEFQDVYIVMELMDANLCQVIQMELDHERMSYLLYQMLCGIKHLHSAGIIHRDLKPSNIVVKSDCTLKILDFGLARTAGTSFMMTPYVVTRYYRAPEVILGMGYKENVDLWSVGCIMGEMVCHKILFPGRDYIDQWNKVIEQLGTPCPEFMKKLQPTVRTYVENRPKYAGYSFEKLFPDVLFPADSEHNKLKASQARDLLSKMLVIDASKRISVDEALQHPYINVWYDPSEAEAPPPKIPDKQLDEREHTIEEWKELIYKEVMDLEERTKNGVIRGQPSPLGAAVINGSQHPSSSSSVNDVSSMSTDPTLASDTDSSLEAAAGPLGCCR
Experiment [14] concerns the target T3, Mitogen-activated protein kinase 12 (Homo sapiens) (UniProt P53778).
T3 sequence (whole entry): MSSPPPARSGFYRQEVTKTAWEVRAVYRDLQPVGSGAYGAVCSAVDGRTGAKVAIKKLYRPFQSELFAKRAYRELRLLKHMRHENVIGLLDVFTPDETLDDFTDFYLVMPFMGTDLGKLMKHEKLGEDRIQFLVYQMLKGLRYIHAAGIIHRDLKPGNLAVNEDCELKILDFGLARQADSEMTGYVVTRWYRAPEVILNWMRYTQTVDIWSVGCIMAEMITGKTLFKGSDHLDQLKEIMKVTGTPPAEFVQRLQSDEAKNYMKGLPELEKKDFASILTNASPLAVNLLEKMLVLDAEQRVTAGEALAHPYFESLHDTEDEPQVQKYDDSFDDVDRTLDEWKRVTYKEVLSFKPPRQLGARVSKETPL
Description: Inhibition of His-tagged human SAPK3/p38gamma expressed in Escherichia coli at 1 uM; values are per cent of control.

Experiment [15] deals with Mitogen-activated protein kinase 1 (Homo sapiens) (UniProt P28482). Description: Inhibition of His-tagged human MAPK2/ERK2 expressed in Escherichia coli at 1 uM; values are per cent of control.
Mitogen-activated protein kinase 1 (Homo sapiens), sequence (P28482 whole entry): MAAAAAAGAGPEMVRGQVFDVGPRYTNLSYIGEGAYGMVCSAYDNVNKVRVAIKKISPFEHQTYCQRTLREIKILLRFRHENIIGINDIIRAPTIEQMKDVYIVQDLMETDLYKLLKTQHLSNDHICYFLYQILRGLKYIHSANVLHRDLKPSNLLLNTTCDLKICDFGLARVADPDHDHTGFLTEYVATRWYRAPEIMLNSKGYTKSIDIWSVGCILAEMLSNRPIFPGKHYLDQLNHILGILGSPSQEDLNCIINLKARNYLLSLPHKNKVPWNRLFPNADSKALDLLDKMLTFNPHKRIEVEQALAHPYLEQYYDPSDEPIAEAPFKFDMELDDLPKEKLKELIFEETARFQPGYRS

Ribosomal protein S6 kinase alpha-5, sequence (O75582 whole entry, looked up): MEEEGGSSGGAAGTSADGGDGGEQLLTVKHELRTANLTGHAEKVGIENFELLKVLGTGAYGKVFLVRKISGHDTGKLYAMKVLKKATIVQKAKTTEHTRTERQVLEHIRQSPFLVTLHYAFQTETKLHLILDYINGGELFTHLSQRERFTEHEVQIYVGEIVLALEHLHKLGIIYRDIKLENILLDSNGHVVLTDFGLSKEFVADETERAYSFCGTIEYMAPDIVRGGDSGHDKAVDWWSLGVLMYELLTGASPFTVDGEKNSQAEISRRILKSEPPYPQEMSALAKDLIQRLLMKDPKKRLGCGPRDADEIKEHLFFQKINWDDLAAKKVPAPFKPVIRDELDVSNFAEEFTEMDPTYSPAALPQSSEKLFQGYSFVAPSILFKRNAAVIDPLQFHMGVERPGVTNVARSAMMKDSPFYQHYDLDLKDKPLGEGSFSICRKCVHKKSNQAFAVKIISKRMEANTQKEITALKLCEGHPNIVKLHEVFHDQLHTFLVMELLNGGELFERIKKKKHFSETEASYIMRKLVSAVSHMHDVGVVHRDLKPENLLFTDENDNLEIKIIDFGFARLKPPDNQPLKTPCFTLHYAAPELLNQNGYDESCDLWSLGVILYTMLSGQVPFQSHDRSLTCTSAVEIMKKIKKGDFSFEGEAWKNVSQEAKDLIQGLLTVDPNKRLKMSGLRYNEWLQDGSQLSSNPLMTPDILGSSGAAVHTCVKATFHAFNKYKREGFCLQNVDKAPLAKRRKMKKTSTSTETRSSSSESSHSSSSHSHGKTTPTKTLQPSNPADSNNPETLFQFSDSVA
3-phosphoinositide-dependent protein kinase 1 (Homo sapiens), sequence (O15530 whole entry, looked up): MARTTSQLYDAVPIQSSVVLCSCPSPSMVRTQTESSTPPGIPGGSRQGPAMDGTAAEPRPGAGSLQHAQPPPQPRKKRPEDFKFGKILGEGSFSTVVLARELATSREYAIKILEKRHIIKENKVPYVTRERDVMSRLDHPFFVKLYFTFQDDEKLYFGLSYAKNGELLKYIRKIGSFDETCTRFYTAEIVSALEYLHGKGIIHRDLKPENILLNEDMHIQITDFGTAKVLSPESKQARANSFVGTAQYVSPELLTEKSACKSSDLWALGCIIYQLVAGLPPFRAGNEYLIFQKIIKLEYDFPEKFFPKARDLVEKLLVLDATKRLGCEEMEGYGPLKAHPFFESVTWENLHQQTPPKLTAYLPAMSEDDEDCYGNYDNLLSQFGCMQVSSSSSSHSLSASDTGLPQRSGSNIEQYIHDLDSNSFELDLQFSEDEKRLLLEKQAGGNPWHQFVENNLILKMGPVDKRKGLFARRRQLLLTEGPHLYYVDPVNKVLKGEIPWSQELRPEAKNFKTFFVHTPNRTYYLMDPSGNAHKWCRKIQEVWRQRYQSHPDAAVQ

As to `NCCCn1cc(C2=C(c3c[nH]c4ccccc34)C(=O)NC2=O)c2ccccc21`, the residual activity in the experiment filed under Oryctolagus cuniculus [1] turned out to be 2%; in experiment [2], 104%; in experiment [3], 7%; in experiment [4], 40%; in experiment [5], 9%; in experiment [6], 99%. Moreover, the residual activity in [7] was found to be 106%; in the experiment listed under Oryctolagus cuniculus [8], 90%; in experiment [9], 89%; in [10] it was 69%; in the experiment listed under Oryctolagus cuniculus [11] it was 20%; in the experiment filed under Rattus norvegicus it was 23%. For the same compound, the residual activity in the experiment filed under Bos taurus stood at 87%; in [12], 89%; in [13] it was 100%; in [14], 116%; in experiment [15] it was 107%.
